Experimental data from PubChem BioAssay (NCI).
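Method: 48-hour compound exposure of cells in 96-well plates, five concentrations, linear interpolation of endpoints. TGI: concentration producing complete growth inhibition.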

How the values were obtained:
Test in all cases: NCI-60 cell line screen, 48 h
HCC-2998 colon = system: HCC-2998 colon
DMS 273 small cell lung = system: DMS 273 small cell lung
SNB-78 CNS = system: SNB-78 CNS
UO-31 renal = system: UO-31 renal
HT29 colon = system: HT29 colon
SK-MEL-2 melanoma = system: SK-MEL-2 melanoma
RPMI-8226 leukemia = system: RPMI-8226 leukemia
UACC-257 melanoma = system: UACC-257 melanoma
NCI-H522 lung = system: NCI-H522 lung
SF-539 CNS = system: SF-539 CNS
OVCAR-8 ovarian = system: OVCAR-8 ovarian
HOP-62 NSCLC = system: HOP-62 NSCLC
LXFL 529 NSCLC = system: LXFL 529 NSCLC
HCT-116 colon = system: HCT-116 colon
CCRF-CEM leukemia = system: CCRF-CEM leukemia
OVCAR-3 ovarian = system: OVCAR-3 ovarian
KM12 colon = system: KM12 colon
HCT-15 colon = system: HCT-15 colon
MALME-3M melanoma = system: MALME-3M melanoma
IGROV1 ovarian = system: IGROV1 ovarian
EKVX NSCLC = system: EKVX NSCLC
A498 renal = system: A498 renal
SK-MEL-28 melanoma = system: SK-MEL-28 melanoma
M19-MEL melanoma = system: M19-MEL melanoma
K-562 leukemia = system: K-562 leukemia
UACC-62 melanoma = system: UACC-62 melanoma
HL-60(TB) leukemia = system: HL-60(TB) leukemia
CAKI-1 renal = system: CAKI-1 renal
OVCAR-4 ovarian = system: OVCAR-4 ovarian
U251 CNS = system: U251 CNS
SF-295 CNS = system: SF-295 CNS
A549 NSCLC = system: A549 NSCLC
XF 498 CNS = system: XF 498 CNS
SN12C renal = system: SN12C renal
SK-MEL-5 melanoma = system: SK-MEL-5 melanoma
OVCAR-5 ovarian = system: OVCAR-5 ovarian
ACHN renal = system: ACHN renal
TK-10 renal = system: TK-10 renal
DLD-1 colon = system: DLD-1 colon
SNB-19 CNS = system: SNB-19 CNS
HOP-92 NSCLC = system: HOP-92 NSCLC
NCI-H460 lung = system: NCI-H460 lung
COLO 205 colon = system: COLO 205 colon
RXF 393 renal = system: RXF 393 renal
M14 melanoma = system: M14 melanoma
SNB-75 CNS = system: SNB-75 CNS
LOX IMVI melanoma = system: LOX IMVI melanoma
NCI-H23 lung = system: NCI-H23 lung
MOLT-4 leukemia = system: MOLT-4 leukemia
SK-OV-3 ovarian = system: SK-OV-3 ovarian
KM20L2 colon = system: KM20L2 colon
SF-268 CNS = system: SF-268 CNS
DMS 114 small cell lung = system: DMS 114 small cell lung
SW-620 colon = system: SW-620 colon
786-0 renal = system: 786-0 renal
HOP-18 NSCLC = system: HOP-18 NSCLC
RXF-631 renal = system: RXF-631 renal
NCI-H226 lung = system: NCI-H226 lung
SR leukemia = system: SR leukemia

COC(=O)CCC(=O)Nc1cccc(C(F)(F)F)c1
TGI (HCC-2998 colon): > 100 µM
TGI (DMS 273 small cell lung): > 100 µM
TGI (SNB-78 CNS): > 100 µM
TGI (UO-31 renal): > 100 µM
TGI (HT29 colon): > 100 µM
TGI (SK-MEL-2 melanoma): > 100 µM
TGI (RPMI-8226 leukemia): > 100 µM
TGI (UACC-257 melanoma): > 100 µM
TGI (NCI-H522 lung): > 100 µM
TGI (SF-539 CNS): > 100 µM
TGI (OVCAR-8 ovarian): > 100 µM
TGI (HOP-62 NSCLC): > 100 µM
TGI (LXFL 529 NSCLC): > 100 µM
TGI (HCT-116 colon): > 100 µM
TGI (CCRF-CEM leukemia): > 100 µM
TGI (OVCAR-3 ovarian): > 100 µM
TGI (KM12 colon): > 100 µM
TGI (HCT-15 colon): > 100 µM
TGI (MALME-3M melanoma): > 100 µM
TGI (IGROV1 ovarian): > 100 µM
TGI (EKVX NSCLC): > 100 µM
TGI (A498 renal): > 100 µM
TGI (SK-MEL-28 melanoma): > 100 µM
TGI (M19-MEL melanoma): > 100 µM
TGI (K-562 leukemia): > 100 µM
TGI (UACC-62 melanoma): > 100 µM
TGI (HL-60(TB) leukemia): > 100 µM
TGI (CAKI-1 renal): > 100 µM
TGI (OVCAR-4 ovarian): > 100 µM
TGI (U251 CNS): > 100 µM
TGI (SF-295 CNS): > 100 µM
TGI (A549 NSCLC): > 100 µM
TGI (XF 498 CNS): > 100 µM
TGI (SN12C renal): > 100 µM
TGI (SK-MEL-5 melanoma): > 100 µM
TGI (OVCAR-5 ovarian): > 100 µM
TGI (ACHN renal): > 100 µM
TGI (TK-10 renal): > 100 µM
TGI (DLD-1 colon): > 100 µM
TGI (SNB-19 CNS): > 100 µM
TGI (HOP-92 NSCLC): > 100 µM
TGI (NCI-H460 lung): > 100 µM
TGI (COLO 205 colon): > 100 µM
TGI (RXF 393 renal): > 100 µM
TGI (M14 melanoma): > 100 µM
TGI (SNB-75 CNS): > 100 µM
TGI (LOX IMVI melanoma): > 100 µM
TGI (NCI-H23 lung): > 100 µM
TGI (MOLT-4 leukemia): > 100 µM
TGI (SK-OV-3 ovarian): > 100 µM
TGI (KM20L2 colon): > 100 µM
TGI (SF-268 CNS): > 100 µM
TGI (DMS 114 small cell lung): > 100 µM
TGI (SW-620 colon): > 100 µM
TGI (786-0 renal): > 100 µM
TGI (HOP-18 NSCLC): > 100 µM

CCCCN1C(=O)C2c3[nH]c4ccccc4c3C3CCCCC3C2C1=O (mixture of isomers)
TGI (HCC-2998 colon): 62.4 µM
TGI (DMS 273 small cell lung): 23.5 µM
TGI (SNB-78 CNS): 50 µM
TGI (UO-31 renal): 47.5 µM
TGI (HT29 colon): > 100 µM
TGI (SF-539 CNS): 28.6 µM
TGI (OVCAR-8 ovarian): 58.8 µM
TGI (HOP-62 NSCLC): 19.4 µM
TGI (LXFL 529 NSCLC): 29.1 µM
TGI (HCT-116 colon): 23.6 µM
TGI (CCRF-CEM leukemia): 37.5 µM
TGI (OVCAR-3 ovarian): 28.9 µM
TGI (HCT-15 colon): > 100 µM
TGI (IGROV1 ovarian): 75.9 µM
TGI (EKVX NSCLC): 66.8 µM
TGI (SK-MEL-28 melanoma): > 100 µM
TGI (M19-MEL melanoma): > 100 µM
TGI (K-562 leukemia): 28.3 µM
TGI (UACC-62 melanoma): 79.3 µM
TGI (HL-60(TB) leukemia): 29.1 µM
TGI (CAKI-1 renal): 20.4 µM
TGI (OVCAR-4 ovarian): 8.22 µM
TGI (RXF-631 renal): 36.4 µM
TGI (U251 CNS): 36.3 µM
TGI (SF-295 CNS): 23.7 µM
TGI (A549 NSCLC): 45 µM
TGI (XF 498 CNS): 27.8 µM
TGI (SN12C renal): > 100 µM
TGI (SK-MEL-5 melanoma): 90.3 µM
TGI (ACHN renal): 27.7 µM
TGI (TK-10 renal): 33.9 µM
TGI (DLD-1 colon): > 100 µM
TGI (SNB-19 CNS): 64.2 µM
TGI (NCI-H460 lung): 31.2 µM
TGI (COLO 205 colon): > 100 µM
TGI (M14 melanoma): 42.8 µM
TGI (SNB-75 CNS): 21.9 µM
TGI (LOX IMVI melanoma): 24.1 µM
TGI (NCI-H23 lung): 78.1 µM
TGI (MOLT-4 leukemia): 19.4 µM
TGI (SK-OV-3 ovarian): 47.7 µM
TGI (KM20L2 colon): > 100 µM
TGI (SF-268 CNS): 48.4 µM
TGI (DMS 114 small cell lung): 44.6 µM
TGI (SW-620 colon): > 100 µM
TGI (786-0 renal): 20.2 µM

CCCCCCN(CCCCCC)C1=CC(=O)C(=O)c2ccccc21
TGI (HCC-2998 colon): 35.6 µM
TGI (DMS 273 small cell lung): 34.7 µM
TGI (SNB-78 CNS): 51.8 µM
TGI (NCI-H226 lung): 34.7 µM
TGI (UO-31 renal): 26.2 µM
TGI (HT29 colon): 35.6 µM
TGI (SK-MEL-2 melanoma): 35.1 µM
TGI (RPMI-8226 leukemia): 60.2 µM
TGI (UACC-257 melanoma): 28.6 µM
TGI (NCI-H522 lung): 24.2 µM
TGI (SF-539 CNS): 30.9 µM
TGI (OVCAR-8 ovarian): 29.7 µM
TGI (HOP-62 NSCLC): 32.8 µM
TGI (LXFL 529 NSCLC): 33.4 µM
TGI (HCT-116 colon): 32.9 µM
TGI (CCRF-CEM leukemia): > 100 µM
TGI (OVCAR-3 ovarian): 14 µM
TGI (KM12 colon): 31.5 µM
TGI (HCT-15 colon): 34.8 µM
TGI (MALME-3M melanoma): 35.8 µM
TGI (IGROV1 ovarian): 31.1 µM
TGI (EKVX NSCLC): 27.7 µM
TGI (A498 renal): 41.6 µM
TGI (SK-MEL-28 melanoma): 31.8 µM
TGI (M19-MEL melanoma): 4.99 µM
TGI (K-562 leukemia): 46.4 µM
TGI (UACC-62 melanoma): 30.8 µM
TGI (HL-60(TB) leukemia): 34.6 µM
TGI (CAKI-1 renal): 28.6 µM
TGI (OVCAR-4 ovarian): 29.2 µM
TGI (RXF-631 renal): 38.3 µM
TGI (U251 CNS): 29.3 µM
TGI (SF-295 CNS): 29.1 µM
TGI (A549 NSCLC): 36.5 µM
TGI (SN12C renal): 30.3 µM
TGI (SK-MEL-5 melanoma): 30.9 µM
TGI (OVCAR-5 ovarian): 33.2 µM
TGI (SR leukemia): 63.3 µM
TGI (ACHN renal): 30.9 µM
TGI (TK-10 renal): 36.1 µM
TGI (DLD-1 colon): 32.3 µM
TGI (SNB-19 CNS): 29.6 µM
TGI (HOP-92 NSCLC): 28.7 µM
TGI (NCI-H460 lung): 33.6 µM
TGI (COLO 205 colon): 31.4 µM
TGI (RXF 393 renal): 40.5 µM
TGI (M14 melanoma): 32.4 µM
TGI (SNB-75 CNS): 31.1 µM
TGI (LOX IMVI melanoma): 22.1 µM
TGI (NCI-H23 lung): 27.8 µM
TGI (MOLT-4 leukemia): 51.3 µM
TGI (SK-OV-3 ovarian): 31.6 µM
TGI (KM20L2 colon): 37.6 µM
TGI (SF-268 CNS): 36.6 µM
TGI (SW-620 colon): 27.3 µM
TGI (786-0 renal): 30.3 µM
TGI (HOP-18 NSCLC): 29.7 µM
